Results published in ChEMBL document CHEMBL5715942, “A novel histone deacetylase 8 (HDAC8)-specific inhibitor PCI-34051 induces apoptosis in T-cell lymphomas” (Leukemia, 2008).
The source made the active and inactive calls. The rule behind the calls is not given here.

Legend:
Jurkat [1] = experiment: Induction of apoptosis in human Jurkat cells assessed as intracellular calcium level at 0.4 uM in presence of Iodo-1 by spectrofluorimetric analysis; assay type: functional, cell-based
J.gamma1 [2] = experiment: Induction of apoptosis in human J.gamma1 cells assessed as increased intracellular calcium level at 1 uM in presence of Iodo-1 and Ionomycin by spectrofluorimetric analysis; assay type: functional, cell-based
J.gamma1 [3] = experiment: Induction of apoptosis in human J.gamma1 cells assessed as increased intracellular calcium level at 1 uM in presence of Iodo-1 by spectrofluorimetric analysis; assay type: functional, cell-based
Jurkat [4] = experiment: Induction of apoptosis in human Jurkat cells assessed as increase in intracellular calcium level at 0.25 to 1 uM in presence of Iodo-1 and Ionomycin by spectrofluorimetric analysis; assay type: functional, cell-based; conditions: dose 0.25-1 µM
Jurkat [5] = experiment: Induction of apoptosis in human Jurkat cells assessed as increase in intracellular calcium level in presence of Iodo-1 by spectrofluorimetric analysis; assay type: functional, cell-based; conditions: dose 0.25-1 µM
J.gamma1 [6] = experiment: Induction of apoptosis in human J.gamma1 cells at 0.2 uM incubated for 24 hrs by Annexin-V staining based flow cytometry analysis relative to control; assay type: functional
Jurkat [7] = experiment: Induction of apoptosis in human Jurkat cells assessed as increased intracellular calcium level in presence of Iodo-1 and U73122 by spectrofluorimetric analysis; assay type: functional, cell-based
J.gamma1 [8] = experiment: Induction of apoptosis in human J.gamma1 cells assessed as increased intracellular calcium level in presence of Iodo-1 and U73122 by spectrofluorimetric analysis; assay type: functional, cell-based
Jurkat [9] = experiment: Induction of apoptosis in human Jurkat cells assessed as intracellular calcium level at 0.8 uM in presence of Iodo-1 by spectrofluorimetric analysis; assay type: functional, cell-based

For `COc1ccc2c(c1)CC[C@@H]1[C@@H]2CC[C@]2(C)[C@@H](NCCCCCCN3C(=O)C=CC3=O)CC[C@@H]12`, which Activity (Jurkat [1]) is on record?
The Activity was “inactive”.

With `C/C=C(/C)C(=O)O[C@H]1C(C)=C2[C@H]([C@@H]1OC(=O)CCCCCCC)[C@@](C)(OC(C)=O)C[C@H](OC(=O)CCC)[C@@]1(O)[C@H]2OC(=O)[C@@]1(C)O` [THAPSIGARGIN] as the compound, how does the Activity (J.gamma1 [2]) read?
The Activity was “Active”.

And the Activity (J.gamma1 [3])?
Its Activity is “Active”.

What about the Activity (Jurkat [4]) of the same compound?
The Activity was “Active”.

What about the Activity (Jurkat [5]) of the same compound?
The Activity was “Dose-Dependent Effect”.

What about the Activity (J.gamma1 [6]) of the same compound?
Its Activity is 12%.

And the Activity (Jurkat [7])?
Its Activity is “Active”.

What about the Activity (J.gamma1 [8]) of the same compound?
Its Activity is “Active”.

How did the Activity (Jurkat [9]) turn out when `COc1ccc2c(c1)CC[C@@H]1[C@@H]2CC[C@]2(C)[C@@H](NCCCCCCN3C(=O)CCC3=O)CC[C@@H]12` was run?
Its Activity is “inactive”.
